According to the supplement of paper PMC10307832:

How the values were obtained:
Experiment in all cases: relative viability (nuclei count vs DMSO), 5 days (fraction); higher = more cells survive
[1] = compound: Cc1cc([C@@H](C)Nc2ccccc2C(=O)O)c2nc(N3CCOCC3)cc(=O)n2c1 [AZD6482] + CS(=O)(=O)CCNCc1ccc(-c2ccc3ncnc(Nc4ccc(OCc5cccc(F)c5)c(Cl)c4)c3c2)o1 [Lapatinib] (partner 2 µM)
Outline: (§1)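 Cells from lung cancer lines were seeded into 1536-well plates and, one day later, dosed by pin tool. Treatments were either a single drug or a fixed dose of an anchor drug with five library-drug doses (not always all listed) in √10 steps. After 5 days, nuclei were stained in a one-step fixation (final 0.05% Triton X-100, 1% formaldehyde, 1 ug/ml Hoechst) and counted on 4× images, and relative viability is the treated-to-vehicle nuclei ratio, as the median of duplicate plates.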

[2] = compound: Cc1cc([C@@H](C)Nc2ccccc2C(=O)O)c2nc(N3CCOCC3)cc(=O)n2c1 [AZD6482] + COc1cccc2cc(-c3nc([C@H]4CC[C@H](C(=O)O)CC4)n4ncnc(N)c34)[nH]c12 [OSI-027] (partner 0.5 µM)
Outline: as §1

[3] = compound: COc1cc2nc(N3CCCN(C)CC3)nc(NC3CCN(Cc4ccccc4)CC3)c2cc1OC + COc1cc2c(Oc3ccc(NC(=O)C4(C(=O)Nc5ccc(F)cc5)CC4)cc3F)ccnc2cc1OCCCN1CCOCC1 [Foretinib] (partner 0.25 µM)
Outline: as §1

[4] = compound: Cc1cc([C@@H](C)Nc2ccccc2C(=O)O)c2nc(N3CCOCC3)cc(=O)n2c1 [AZD6482] + Nc1nc2[nH]cc(CCc3ccc(C(=O)N[C@@H](CCC(=O)O)C(=O)O)cc3)c2c(=O)[nH]1 [Pemetrexed] (partner 0.2 µM)
Outline: as §1

| Cell Line | relative viability ([1]; first compound 0.08 µM) | relative viability ([1]; first compound 0.253 µM) | relative viability ([1]; first compound 0.8 µM) | relative viability ([1]; first compound 8 µM) | relative viability ([2]; first compound 0.08 µM) | relative viability ([2]; first compound 0.253 µM) | relative viability ([2]; first compound 0.8 µM) | relative viability ([2]; first compound 2.53 µM) | relative viability ([2]; first compound 8 µM) | relative viability ([3]; first compound 0.2 µM) | relative viability ([3]; first compound 0.6325 µM) | relative viability ([3]; first compound 2 µM) | relative viability ([3]; first compound 6.325 µM) | relative viability ([1]; first compound 2.53 µM) | relative viability ([4]; first compound 0.08 µM) | relative viability ([4]; first compound 0.253 µM) | relative viability ([4]; first compound 0.8 µM) | relative viability ([4]; first compound 8 µM) | relative viability ([4]; first compound 2.53 µM) |
| --- | --- | --- | --- | --- | --- | --- | --- | --- | --- | --- | --- | --- | --- | --- | --- | --- | --- | --- | --- |
| NCI-H727 | 0.659 | 0.843 | 0.951 | 0.667 | 0.457 | 0.521 | 0.511 | 0.43 | 0.518 | 0.771 | 1.04 | 0.889 | 0.832 |  |  |  |  |  |  |
| NCI-H1299 | 0.94 | 0.956 | 1.11 | 0.983 |  |  |  |  |  | 1.07 | 1.07 | 1.13 | 1.06 | 0.948 |  |  |  |  |  |
| NCI-H1623 |  |  |  |  | 0.392 | 0.404 | 0.432 | 0.388 | 0.397 | 0.903 | 0.94 | 0.848 | 0.768 |  |  |  |  |  |  |
| NCI-H1648 |  |  |  |  | 0.297 | 0.268 | 0.245 | 0.228 | 0.276 |  |  |  |  |  | 0.892 | 0.625 | 0.816 | 0.671 |  |
| NCI-H1703 | 1.11 | 0.871 | 0.654 | 0.484 |  |  |  |  |  | 0.313 | 0.317 | 0.412 | 0.448 | 0.448 |  |  |  |  |  |
| NCI-H1792 | 0.814 | 0.815 | 0.879 | 0.598 | 0.662 | 0.677 | 0.73 | 0.511 | 0.406 |  |  |  |  | 0.628 | 0.63 | 0.632 | 0.641 | 0.417 | 0.303 |
| NCI-H2342 |  |  |  |  | 0.542 | 0.586 | 0.568 | 0.448 | 0.471 | 1.1 | 1 | 1.17 | 1.1 |  | 0.745 | 0.681 | 0.726 | 0.567 | 0.609 |
| SW 900 |  |  |  |  | 0.45 | 0.471 | 0.433 |  | 0.492 | 0.679 | 1.15 | 0.779 | 0.857 |  | 0.479 | 0.476 | 0.501 | 0.384 | 0.358 |
